Where two headings read alike, the source gives them in different places.
Tests used:
[1] = test system: MRSA; experiment: Screening on Isosensitest agar with incorporated BTA and 10 μg methicillin discs; assay type: cell-based, Staphylococcus aureus; conditions: VRE and MRSA
Description: To find substances related to GBE that might have increased potency, various substances, including those with additional glycine moieties and benzylates, have been screened. Screening was carried out using Isosensitest agar (Oxoid, UK) into which various levels of potential BTAs were incorporated at levels between 0.01 and 1.0%. The agar with incorporated BTA was then used in the manner of a standard antibiotic sensitivity test using 10 μg methicillin discs. The test organism was inoculated onto the agar surface at a concentration suitable to achieve confluent growth after 18 hours incubation at 30° C. After incubation, zone diameters were compared with that achieved by the control plate (Isosensitest alone) for each test organism.

[2] = test system: MRSA; assay type: cell-based, Staphylococcus aureus; conditions: GBE 0.00075M [0.15%]
Source text: Stored frozen plasma was pooled from five subjects.
Human plasma may bind or otherwise inactivate foreign substances and good activity in plasma is indicative of good in vivo activity.

[3] = test system: vancomycin- and gentamicin-resistant Enterococcus faecium; experiment: microbe, parasite or virus in culture; assay type: cell-based; conditions: for MIC of vancomycin: GBE 0.02M
Source text: The agents of the present invention are not limited to the reversal of resistance in Staphylococcus. The test strains in Table 5 are patient-isolates of vancomycin- and gentamicin-resistant Enterococcus faecium. At the time of isolation, they were commonly resistant to all clinically useable antimicrobial agents.

[4] = test system: MRSA; assay type: cell-based, Staphylococcus aureus; conditions: agents not hydrolysed by staphylococcal β-lactamase
[5] = test system: MRSA; experiment: MIC of methicillin for MRSA isolates grown with glycine or GBE (Table 1); assay type: cell-based, Staphylococcus aureus; conditions: for MIC of methicillin: GBE 0.001M (0.2%)

NCC(=O)OCc1ccccc1 [GBE, Glycine Benzyl Ester]
activity against VRE and MRSA relative to glycylglycine benzyl ester [1]: greater activity | MIC of methicillin ([2]; 5518 (EMRSA-1), +1% human plasma): 4 µg/mL | MIC of methicillin ([2]; 5518 (EMRSA-1), no plasma): 2 µg/mL | MIC of methicillin ([2]; L277, +1% human plasma): 8 µg/mL | MIC of methicillin ([2]; L277, no plasma): 4 µg/mL | MIC of methicillin ([2]; L278, +1% human plasma): 16 µg/mL | MIC of methicillin ([2]; L278, no plasma): 8 µg/mL | MIC of methicillin ([2]; L279, +1% human plasma): 16 µg/mL | MIC of methicillin ([2]; L279, no plasma): 4 µg/mL | MIC of methicillin ([2]; L280, +1% human plasma): 8 µg/mL | MIC of methicillin ([2]; L280, no plasma): 4 µg/mL | MIC of methicillin ([2]; L281, +1% human plasma): 8 µg/mL | MIC of methicillin ([2]; L281, no plasma): 4 µg/mL | MIC of methicillin ([2]; L282, +1% human plasma): 16 µg/mL | MIC of methicillin ([2]; L282, no plasma): 4 µg/mL | MIC of methicillin ([2]; L283, +1% human plasma): 16 µg/mL | MIC of methicillin ([2]; L283, no plasma): 4 µg/mL | MIC of methicillin ([2]; L284, +1% human plasma): 8 µg/mL | MIC of methicillin ([2]; L284, no plasma): 2 µg/mL | MIC of methicillin ([2]; L285, +1% human plasma): 16 µg/mL | MIC of methicillin ([2]; L285, no plasma): 4 µg/mL | MIC of methicillin ([2]; L286, +1% human plasma): 8 µg/mL | MIC of methicillin ([2]; L286, no plasma): 4 µg/mL | MIC of methicillin ([2]; L287, +1% human plasma): 16 µg/mL | MIC of methicillin ([2]; L287, no plasma): 4 µg/mL | MIC of methicillin ([2]; L288, +1% human plasma): 16 µg/mL | MIC of methicillin ([2]; L288, no plasma): 2 µg/mL | MIC of methicillin ([2]; L289, +1% human plasma): 16 µg/mL | MIC of methicillin ([2]; L289, no plasma): 4 µg/mL | MIC of methicillin ([2]; L290, +1% human plasma): 8 µg/mL | MIC of methicillin ([2]; L290, no plasma): 4 µg/mL | MIC of methicillin ([2]; L291, +1% human plasma): 16 µg/mL | MIC of methicillin ([2]; L291, no plasma): 4 µg/mL | MIC of methicillin ([2]; L292, +1% human plasma): 32 µg/mL | MIC of methicillin ([2]; L292, no plasma): 4 µg/mL | MIC of methicillin ([2]; L293, +1% human plasma): 8 µg/mL | MIC of methicillin ([2]; L293, no plasma): 2 µg/mL | MIC of methicillin ([2]; L294, +1% human plasma): 8 µg/mL | MIC of methicillin ([2]; L294, no plasma): 2 µg/mL | strains tested with complete transformation (target MIC of vancomycin 2 mg/l) ([3]; 0.02 M GBE, Table 5): 100% | MIC of vancomycin ([3]; ATCC 29212): 1 µg/mL | MIC of vancomycin ([3]; BBC): 2 µg/mL | MIC of vancomycin ([3]; E254): 2 µg/mL | MIC of vancomycin ([3]; E267): 2 µg/mL | MIC of vancomycin ([3]; E271): 2 µg/mL | MIC of vancomycin ([3]; E285): 2 µg/mL | MIC of vancomycin ([3]; E297): 2 µg/mL | MIC of vancomycin ([3]; GBC): 2 µg/mL | MIC of vancomycin ([3]; S226): 2 µg/mL | MIC of vancomycin ([3]; S227): 2 µg/mL | MIC of vancomycin ([3]; S283): 2 µg/mL | MIC of vancomycin ([3]; S302): 2 µg/mL | MIC of vancomycin ([3]; S315): 1 µg/mL | MIC of vancomycin ([3]; S317): 2 µg/mL | MIC of vancomycin ([3]; S319): 2 µg/mL | MIC of vancomycin ([3]; S333): 2 µg/mL | MIC of vancomycin ([3]; S337): 2 µg/mL | MIC of vancomycin ([3]; S393): 2 µg/mL | MIC of vancomycin ([3]; S497): 1 µg/mL | MIC of vancomycin ([3]; S556): 1 µg/mL | MIC of vancomycin ([3]; WBC): 2 µg/mL | sensitivity of MRSA to other β-lactam agents in the presence of GBE [4]: sensitive to cephalosporins and other β-lactam agents | strains tested with complete transformation ([5]; 0.02 M glycylbenzyl ester, said of Table 1): 100% | MIC of methicillin ([5]; CD40 (EMRSA-1)): 2 µg/mL | MIC of methicillin ([5]; DS09 (EMRSA-1)): 2 µg/mL | MIC of methicillin ([5]; E15-97 (EMRSA-15)): 2 µg/mL | MIC of methicillin ([5]; E16-96 (EMRSA-16)): 2 µg/mL | MIC of methicillin ([5]; JF1-32 (EMRSA-1)): 2 µg/mL | MIC of methicillin ([5]; L265): 2 µg/mL | MIC of methicillin ([5]; L266): 2 µg/mL | MIC of methicillin ([5]; L267): 2 µg/mL | MIC of methicillin ([5]; L268): 2 µg/mL | MIC of methicillin ([5]; L269): 1 µg/mL | MIC of methicillin ([5]; L270): 1 µg/mL | MIC of methicillin ([5]; L271): 2 µg/mL | MIC of methicillin ([5]; L272): 1 µg/mL | MIC of methicillin ([5]; L273): 1 µg/mL | MIC of methicillin ([5]; L274): 2 µg/mL | MIC of methicillin ([5]; L275): 2 µg/mL | MIC of methicillin ([5]; L276): 2 µg/mL | MIC of methicillin ([5]; L277): 2 µg/mL | MIC of methicillin ([5]; L278): 4 µg/mL | MIC of methicillin ([5]; L279): 2 µg/mL | MIC of methicillin ([5]; L280): 2 µg/mL | MIC of methicillin ([5]; L281): 2 µg/mL | MIC of methicillin ([5]; L282): 2 µg/mL | MIC of methicillin ([5]; L283): 2 µg/mL | MIC of methicillin ([5]; L284): 2 µg/mL | MIC of methicillin ([5]; L285): 2 µg/mL | MIC of methicillin ([5]; L286): 2 µg/mL | MIC of methicillin ([5]; L287): 2 µg/mL | MIC of methicillin ([5]; L288): 2 µg/mL | MIC of methicillin ([5]; L289): 2 µg/mL | MIC of methicillin ([5]; L290): 2 µg/mL | MIC of methicillin ([5]; L291): 2 µg/mL | MIC of methicillin ([5]; L292): 2 µg/mL | MIC of methicillin ([5]; L293): 2 µg/mL | MIC of methicillin ([5]; L294): 2 µg/mL | MIC of methicillin ([5]; MC01 (EMRSA-1)): 2 µg/mL | MIC of methicillin ([5]; NCTC 12493): 0.015 µg/mL | MIC of methicillin ([5]; PS3-32 (EMRSA-1)): 2 µg/mL | MIC of methicillin ([5]; SN31 (EMRSA-1)): 2 µg/mL | MIC of methicillin ([5]; ST11 (EMRSA-1)): 2 µg/mL | MIC of methicillin ([5]; SW2-32 (EMRSA-1)): 2 µg/mL | effect on sensitivity to methicillin compared with glycine ([5]; Table 1): increased sensitivity to methicillin to a much greater extent than glycine
